{"source": "patent US8476255B2", "about": "“Histone deacetylase inhibitors” (Orchid Chemicals & Pharmaceuticals Limited, priority 2007, dated 2013)", "key": {"[1]": {"tested_on": "NCIH460, HCT116 and U251 cells", "assay": "Anti-cancer screen, mean GI50 over cell lines", "type": "cell-based", "conditions": "mean over cell lines; read-out: Cell growth inhibition Mean GI50", "procedure,_shortened": "(§1)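 An MTT readout (absorbance at 570 nm) measured growth after 48 h of treatment at five final concentrations, 0.01–100 μM, each in triplicate. A T0 plate read at the time of dosing served as baseline. Cultures were in DMEM plus 10% FBS and pre-incubated 24 h at 37° C., with SAHA as the reference drug.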"}, "[2]": {"tested_on": "U251 (glioma) cells", "assay": "Anti-cancer screen (MTT), U251", "type": "cell-based", "conditions": "Homo sapiens, U-251, U251, 48 hours, MTT", "procedure,_shortened": "as §1"}, "[3]": {"tested_on": "p21", "assay": "p21 induction, sandwich ELISA in HCT116 lysate", "type": "cell-based", "conditions": "HCT116, 18 hours", "experimental": "Acetylated histone (H3), acetylated Tubulin and p21 levels were detected in cell lysate by sandwich ELISA method (Cell Signaling Technology, USA, Cat No: 7232, 7204 & 7167 respectively) by following manufacturer's instructions. Briefly, colon cancer cells (HCT116. 10,000/well) were incubated with test compound (1 and 10 μM) or medium (control) for 4 hours at 37° C. in CO2 incubator. The incubation lasted 18 hours for p21 induction. After incubation, cell lysates were prepared in cell lysis buffer by sonication on ice. The lysates were collected after centrifugation and subjected to ELISA test procedure. 100 μL of each diluted cell lysate in dilution buffer (1:1) was added to appropriate capture antibody coated microwells and incubated overnight at 4° C. After washing, 100 μL of detection antibody was added for 1 hour at 37° C. After second washing, 100 μL of HRP-linked secondary antibody was added for 30 min at 37° C. Finally, after appropriate washing, 100 μL of TMB substrate was added for 10 min at 37° C. followed by 100 μL of stop solution. The absorbance of individual wells was read using a spectrophotometer at 450 nm (A450)."}, "[4]": {"tested_on": "HDAC (Mouse Liver Extract)", "assay": "HDAC inhibition assay using Boc-Lys(Ac)-AMC substrate", "type": "biochemical", "conditions": "mouse liver enzyme", "procedure,_shortened": "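Boc-Lys(Ac)-AMC substrate incubated with mouse liver extract as HDAC source, 5 min preincubation then 30 min at 37° C. Trypsin stop solution added (37° C., 15-30 min) to release AMC, read at ex 360/em 460 nm; buffer-only and substrate-only wells as blanks.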"}}, "data": [{"smiles": "COc1ccc(/C=C(/C(=O)NCc2ccc(C(=O)Nc3ccccc3N)cc2)c2ccc(F)cc2)cc1OC", "note": "[Compound 19, N-(2-Aminophenyl)-4-((3-(3,4-dimethoxyphenyl)-2-(4-fluorophenyl)acrylamido)methyl)benzamide]", "values": [{"measurement": "GI50", "setting": "[1]", "value": 1000, "unit": "nM"}, {"measurement": "GI50", "setting": "[2]; read-out: Cell growth inhibition U251 (Glioma) GI50", "value": 300, "unit": "nM"}, {"measurement": "LC50 (concentration giving 50% net cell kill relative to the time-zero cell count)", "setting": "[2]; read-out: Cell growth inhibition U251 (Glioma) LC50", "value": 4800, "unit": "nM"}, {"measurement": "IC (TGI)", "setting": "[2]; read-out: Cell growth inhibition U251 (Glioma) TGI", "value": 1800, "unit": "nM"}, {"measurement": "P21 induction (Fold increase)", "setting": "[3]; 1 μM", "value": 1.6, "unit": "Fold increase"}, {"measurement": "P21 induction (Fold increase)", "setting": "[3]; 10 μM", "value": 2.4, "unit": "Fold increase"}, {"measurement": "HDAC inhibition % (1 μM)", "setting": "[4]; 1 μM", "value": 29.7, "unit": "%"}, {"measurement": "HDAC inhibition % (10 μM)", "setting": "[4]; 10 μM", "value": 52.9, "unit": "%"}, {"measurement": "IC50", "setting": "[4]", "value": 8600, "unit": "nM"}]}]}
